Measurements as given in US9556221B2, “N-acetyl amino acid ESTER derivatives of betulin and preparation method thereof” (Northeast Forestry University, priority 2014, dated 2017).

Experiments:
Type in all cases: cell-based
[1] = test system: ovarian cancer cell lines MDAH2774; test: MTT assay, in vitro anti-tumor activity screening, MDAH2774; settings: Homo sapiens, MDAH 2774, MDAH2774 ovarian cancer cell line, read-out: half inhibitory concentration IC50, MDAH2774
Source text: (§1) The present invention also relates to the application of the N-acetyl amino acid ester derivatives of betulin for the preparation of anti-tumor drugs.
(§2) Human colon tumor cell lines HT29, pancreatic cancer cell lines MPC2 and ovarian cancer cell lines MDAH2774 were selected to determine the half inhibitory concentrations (IC50s) of the N-acetyl amino acid ester derivatives of betulin, betulinic acid and betulin, and the results are shown in Table 2.

[2] = test system: Human colon tumor cell lines HT29; test: MTT assay, in vitro anti-tumor activity screening, HT29; settings: HT-29, HT29 colon tumor cell line, read-out: half inhibitory concentration IC50, HT29
Source text: as §1, §2

[3] = test system: pancreatic cancer cell lines MPC2; test: MTT assay, in vitro anti-tumor activity screening, MPC2; settings: Homo sapiens, MPC2 pancreatic cancer cell line, read-out: half inhibitory concentration IC50, MPC2
Source text: as §1, §2

Row | SMILES | IC50 [1] [µM] | IC50 [2] [µM] | IC50 [3] [µM]
1 | C=C(C)[C@@H]1CC[C@]2(COC(=O)C(CC(C)C)NC(C)=O)CC[C@]3(C)C(CC[C@@H]4[C@@]5(C)CC[C@H](O)C(C)(C)[C@@H]5CC[C@]43C)[C@@H]12 (some centres unmarked) [YWZ-005] | 1.38 ± 0.04 | 18.1 ± 1.51 | 19.7 ± 0.83
2 | C=C(C)[C@@H]1CC[C@]2(COC(=O)C(NC(C)=O)C(C)CC)CC[C@]3(C)C(CC[C@@H]4[C@@]5(C)CC[C@H](O)C(C)(C)[C@@H]5CC[C@]43C)[C@@H]12 (some centres unmarked) [YWZ-006] | 7.26 ± 0.1 | 15 ± 1.31 | 10.2 ± 0.69
3 | C=C(C)[C@@H]1CC[C@]2(CO)CC[C@]3(C)[C@H](CC[C@@H]4[C@@]5(C)CC[C@H](O)C(C)(C)[C@@H]5CC[C@]43C)[C@@H]12 [Betulin, Lup-20(29)-ene-3β,28-diol] | > 100 | > 100 | > 100
4 | C=C(C)[C@@H]1CC[C@]2(C(=O)O)CC[C@]3(C)[C@H](CC[C@@H]4[C@@]5(C)CC[C@H](O)C(C)(C)[C@@H]5CC[C@]43C)[C@@H]12 [Betulinic acid, reference compound] | 39.5 ± 2.19 |  | 38.6 ± 2.91
5 | C=C(C)[C@@H]1CC[C@]2(COC(=O)C3CCCN3C(C)=O)CC[C@]3(C)C(CC[C@@H]4[C@@]5(C)CC[C@H](O)C(C)(C)[C@@H]5CC[C@]43C)[C@@H]12 (some centres unmarked) [YWZ-004] | 2.13 ± 0.05 | 8.88 ± 0.62 | 5.32 ± 0.21
6 | C=C(C)[C@@H]1CC[C@]2(COC(=O)C(NC(C)=O)C(C)C)CC[C@]3(C)C(CC[C@@H]4[C@@]5(C)CC[C@H](O)C(C)(C)[C@@H]5CC[C@]43C)[C@@H]12 (some centres unmarked) [YWZ-003] | 10.9 ± 0.76 | 14.1 ± 0.83 | 11.4 ± 0.89
7 | C=C(C)[C@@H]1CC[C@]2(COC(=O)C(C)NC(C)=O)CC[C@]3(C)C(CC[C@@H]4[C@@]5(C)CC[C@H](O)C(C)(C)[C@@H]5CC[C@]43C)[C@@H]12 (some centres unmarked) [YWZ-002] | 10.6 ± 0.62 | 6.58 ± 0.24 | 4.24 ± 0.23
